Experiments:
Conditions in all cases: 72 h
Caco-2 [1] = test: cell viability relative to DMSO; higher = less toxic
Calu-3 [2] = test: as above
HepG2 [3] = test: as above
U2OS [4] = test: as above
Vero E6 [5] = test: as above
Caco-2 [6] = test: relative viability EC50 (midpoint between 100% and the lowest measured viability); higher = less toxic
Calu-3 [7] = test: as above
HepG2 [8] = test: as above
U2OS [9] = test: as above
Vero E6 [10] = test: as above
Caco-2 [11] = test: drug sensitivity score (DSS) for viability; higher = more toxic; extreme values may be limits of the assay
Calu-3 [12] = test: as above
HepG2 [13] = test: as above
U2OS [14] = test: as above
Vero E6 [15] = test: as above

| SMILES | cell viability (Caco-2 [1]; 1 nM) | cell viability (Caco-2 [1]; 10 nM) | cell viability (Caco-2 [1]; 100 nM) | cell viability (Caco-2 [1]; 1000 nM) | cell viability (Caco-2 [1]; 10000 nM) | cell viability (Calu-3 [2]; 1 nM) | cell viability (Calu-3 [2]; 10 nM) | cell viability (Calu-3 [2]; 100 nM) | cell viability (Calu-3 [2]; 1000 nM) | cell viability (Calu-3 [2]; 10000 nM) | cell viability (HepG2 [3]; 1 nM) | cell viability (HepG2 [3]; 10 nM) | cell viability (HepG2 [3]; 100 nM) | cell viability (HepG2 [3]; 1000 nM) | cell viability (HepG2 [3]; 10000 nM) | cell viability (U2OS [4]; 1 nM) | cell viability (U2OS [4]; 10 nM) | cell viability (U2OS [4]; 100 nM) | cell viability (U2OS [4]; 1000 nM) | cell viability (U2OS [4]; 10000 nM) | cell viability (Vero E6 [5]; 1 nM) | cell viability (Vero E6 [5]; 10 nM) | cell viability (Vero E6 [5]; 100 nM) | cell viability (Vero E6 [5]; 1000 nM) | cell viability (Vero E6 [5]; 10000 nM) | relative viability EC50 (Caco-2 [6]) | relative viability EC50 (Calu-3 [7]) | relative viability EC50 (HepG2 [8]) | relative viability EC50 (U2OS [9]) | relative viability EC50 (Vero E6 [10]) | drug sensitivity score (Caco-2 [11]) | drug sensitivity score (Calu-3 [12]) | drug sensitivity score (HepG2 [13]) | drug sensitivity score (U2OS [14]) | drug sensitivity score (Vero E6 [15]) |
| --- | --- | --- | --- | --- | --- | --- | --- | --- | --- | --- | --- | --- | --- | --- | --- | --- | --- | --- | --- | --- | --- | --- | --- | --- | --- | --- | --- | --- | --- | --- | --- | --- | --- | --- | --- |
| Nc1ncnc2c1ncn2CCOCP(=O)(O)O [adefovir] | 106% | 100% | 90.2% | 85.7% | 110% | 97.4% | 103% | 104% | 98.2% | 96.2% | 104% | 99.6% | 98.5% | 98.7% | 101% | 90% | 99.1% | 94.1% | 98% | 100% | 109% | 90.7% | 91.2% | 104% | 108% | > 10 µM | > 10 µM | > 10 µM | > 10 µM | > 10 µM | 0 | 0 | 0 | 0 | 0 |
| C[C@@H](N)Cc1c[nH]c2ccc(O)cc12 [alpha-methylserotonin] | 96.1% | 93% | 88% | 92.8% | 101% | 89.6% | 99.1% | 95.3% | 92.9% | 91.1% | 105% | 102% | 100% | 96.9% | 105% | 99% | 102% | 99.8% | 97.4% | 107% | 91.1% | 94.5% | 94.4% | 90.3% | 104% | > 10 µM | > 10 µM | > 10 µM | > 10 µM | > 10 µM | 0 | 0 | 0 | 0 | 0 |
| CO[C@H]1/C=C\C=C(/C)C(=O)NC2=CC(=O)C(NCCN(C)C)=C(C[C@@H](C)C[C@H](OC)[C@H](O)[C@@H](C)/C=C(\C)[C@@H]1OC(N)=O)C2=O [alvespimycin] | 98.4% | 90.3% | 82.9% | 39.7% | 1.6% | 97.3% | 88.4% | 67.1% | 36% | 20% | 106% | 57.9% | 1.3% | 1.4% | -0.1% | 97.7% | 91.3% | 30.8% | 2.5% | 1% | 93.4% | 98.4% | 94.9% | 37% | 10.1% | 0.544 µM | 0.148 µM | 0.0114 µM | 0.0542 µM | 0.587 µM | 13.9 | 16.4 | 36 | 26.6 | 12.8 |
| CN1CC[C@H](c2c(O)cc(O)c3c(=O)cc(-c4ccccc4Cl)oc23)[C@H](O)C1 [alvocidib] | 104% | 99.3% | 93.3% | 25.5% | 30.2% | 89.9% | 98.4% | 80.4% | 36.8% | 37.4% | 100% | 106% | 59.3% | 9.5% | 7.2% | 98.7% | 101% | 95.4% | 3% | 3.4% | 102% | 102% | 95.2% | 5.5% | 3.4% | 0.242 µM | 0.138 µM | 0.111 µM | 0.28 µM | 0.29 µM | 14.7 | 14.5 | 22.1 | 18.1 | 17.8 |
| CC[N+](CC)(CCNC(=O)C(=O)NCC[N+](CC)(CC)Cc1ccccc1Cl)Cc1ccccc1Cl [ambenonium] | 94.7% | 96% | 93.6% | 93.9% | 92.5% | 103% | 99.8% | 103% | 97.6% | 141% | 98.6% | 105% | 96.6% | 100% | 105% | 97.7% | 96.3% | 100% | 94.9% | 100% | 96.4% | 95.5% | 97.9% | 93.1% | 95.3% | > 10 µM | > 10 µM | > 10 µM | > 10 µM | > 10 µM | 0 | 0 | 0 | 0 | 0 |
| CCN1CCCC1CNC(=O)c1cc(S(=O)(=O)CC)c(N)cc1OC (stereo not given) [amisulpride] | 98.8% | 88.6% | 96.7% | 97.1% | 96.1% | 96.4% | 103% | 99.2% | 104% | 103% | 104% | 104% | 94.6% | 99.3% | 102% | 103% | 99.9% | 102% | 98.5% | 103% | 98.6% | 106% | 99.4% | 98.5% | 98.8% | > 10 µM | > 10 µM | > 10 µM | > 10 µM | > 10 µM | 0 | 0 | 0 | 0 | 0 |
| N#C[C@H](O[C@@H]1O[C@H](CO[C@@H]2O[C@H](CO)[C@@H](O)[C@H](O)[C@H]2O)[C@@H](O)[C@H](O)[C@H]1O)c1ccccc1 [amygdalin] | 98.4% | 104% | 110% | 92.8% | 104% | 99.2% | 105% | 93.3% | 109% | 107% | 100% | 98.8% | 104% | 101% | 96.6% | 96.9% | 105% | 100% | 104% | 101% | 101% | 103% | 96% | 95.5% | 102% | > 10 µM | > 10 µM | > 10 µM | > 10 µM | > 10 µM | 0 | 0 | 0 | 0 | 0 |
| O=C1NC(=O)c2c1c1c3ccccc3[nH]c1c1[nH]c3ccccc3c21 [arcyriaflavin-a] | 98.1% | 107% | 99.9% | 98.9% | 85.4% | 105% | 112% | 95.6% | 104% | 106% | 91.7% | 101% | 86.3% | 43.3% | 47.4% | 104% | 99.8% | 101% | 96.9% | 93.7% | 103% | 103% | 99.5% | 92.1% | 91.7% | > 10 µM | > 10 µM | 0.158 µM | > 10 µM | > 10 µM | 0.3 | 0 | 12.6 | 0 | 0 |
| CC[C@H](C)[C@H](N)C1=N[C@H](C(=O)N[C@@H](CC(C)C)C(=O)N[C@H](CCC(=O)[O-])C(=O)N[C@H](C(=O)N[C@H]2CCCCNC(=O)[C@H](CC(N)=O)NC(=O)[C@@H](CC(=O)[O-])NC(=O)[C@H](Cc3cnc[nH]3)NC(=O)[C@@H](Cc3ccccc3)NC(=O)[C@H]([C@@H](C)CC)NC(=O)[C@@H](CCCN)NC2=O)[C@@H](C)CC)CS1.[Zn+2] [bacitracin-zinc] | 93.8% | 90.5% | 104% | 104% | 110% | 93.7% | 106% | 112% | 99.9% | 106% | 96.9% | 100% | 110% | 93.6% | 111% | 92.8% | 99.4% | 96.4% | 103% | 104% | 96.2% | 89.9% | 100% | 95.5% | 112% | > 10 µM | > 10 µM | > 10 µM | > 10 µM | > 10 µM | 0 | 0 | 0 | 0 | 0 |
| CCC(=O)OCC(=O)[C@@]1(OC(=O)CC)[C@@H](C)C[C@H]2[C@@H]3CCC4=CC(=O)C=C[C@]4(C)[C@@]3(Cl)[C@@H](O)C[C@@]21C [beclomethasone-dipropionate] | 97.1% | 97.3% | 94.3% | 104% | 111% | 104% | 106% | 97% | 101% | 88.6% | 97.3% | 95.7% | 99.2% | 81.3% | 80.2% | 96.8% | 102% | 95.9% | 99.1% | 97.2% | 95.8% | 90.6% | 102% | 80.1% | 99.5% | > 10 µM | > 10 µM | > 10 µM | > 10 µM | > 10 µM | 0 | 0 | 2.6 | 0 | 0 |
| C/C(=C(\CCOP(=O)(O)O)SC(=O)c1ccccc1)N(C=O)Cc1cnc(C)nc1N [benfotiamine] | 99.7% | 101% | 91% | 94.6% | 89.1% | 97.2% | 96.9% | 95.8% | 95.4% | 92.1% | 95.1% | 92.4% | 88.4% | 92.7% | 97% | 99.1% | 101% | 95.7% | 98.5% | 99.5% | 100% | 98.3% | 98.9% | 97.4% | 96.2% | > 10 µM | > 10 µM | > 10 µM | > 10 µM | > 10 µM | 0 | 0 | 0 | 0 | 0 |
| O=C(O)c1ccccc1 [benzoic-acid] | 99% | 101% | 95.9% | 98.7% | 98.7% | 99.4% | 101% | 96.8% | 99.2% | 92.6% | 101% | 95.6% | 104% | 92.4% | 96.3% | 98.9% | 102% | 99.1% | 98.2% | 95.9% | 97.1% | 97.6% | 100% | 97.7% | 102% | > 10 µM | > 10 µM | > 10 µM | > 10 µM | > 10 µM | 0 | 0 | 0 | 0 | 0 |
| C[N+](C)(CCOc1ccccc1)Cc1ccccc1 [bephenium-hydroxynaphthoate] | 96.1% | 99.4% | 106% | 102% | 102% | 102% | 103% | 90% | 98% | 102% | 100% | 98.4% | 92.3% | 96.8% | 100% | 93.7% | 99.4% | 93.5% | 101% | 102% | 98.2% | 96.9% | 94.8% | 92.6% | 103% | > 10 µM | > 10 µM | > 10 µM | > 10 µM | > 10 µM | 0 | 0 | 0 | 0 | 0 |
| Oc1cccc(Nc2ccc(Nc3cccc(O)c3)nn2)c1 [beta-amyloid-synthesis-inhibitor] | 101% | 90.4% | 109% | 101% | 94.4% | 115% | 94.9% | 98.1% | 106% | 102% | 102% | 101% | 97.9% | 98.6% | 104% | 106% | 97.1% | 100% | 100% | 106% | 92.4% | 97.3% | 93.8% | 98% | 95.5% | > 10 µM | > 10 µM | > 10 µM | > 10 µM | > 10 µM | 0 | 0 | 0 | 0 | 0 |

Source: the supplement of paper PMC13380429
